Consider 16 molecules from patent publication US9447086B2, “6-amino acid heteroaryldihydropyrimidines for the treatment and prophylaxis of hepatitis B virus infection” (priority 2012, dated 2016).

Series [1] relates to HBV. Nature of the series: Anti-HBV activity in vitro in HepG2.2.15 cells (extracellular HBV DNA by qPCR). In kind it is cell-based, Hepatitis B virus. As to conditions: Hepatitis B virus; HepG2.2.15 cells; in-house data; read-out: EC50. Summed up:
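HepG2.2.15 cells, which constitutively produce HBV, were seeded overnight and then treated for 5 days with half-log serially diluted compounds at 0.5% final DMSO. Extracellular HBV DNA in culture supernatant was extracted and quantified by qPCR.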
(In general: Quantitative PCR measures a nucleic acid by following its amplification.)

For another series, the system named is HepDE19 cells. Kind of series: Cytotoxicity (CC50) in HepDE19 cells, CCK-8 cell viability. In kind it is cell-based. In outline:
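HBV-transfected HepG2-derived HepDE19 cells grown in DMEM-F12 with 10% FBS and G418. Viability read five days after treatment by CCK-8, 2 h at 37 °C, absorbance at 450 and 630 nm.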

Series [2] has as its system HBV. Kind of series: Selectivity index (CC50 value/EC50 value). Type of series: cell-based, Hepatitis B virus. Summed up:
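Ratio of CC50 to EC50, measuring antiviral activity against HBV relative to cytotoxicity in vitro; higher values indicate greater separation between viral inhibition and cell death.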

Series [3] is described as follows: Metabolic stability study in human microsome. Type of series: in vitro ADME. Summed up:
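Human liver microsomes (0.5 mg/mL) with 1 μM compound in 100 mM phosphate pH 7.4 at 37 °C, started with 1 mM NADPH or an NADPH-regenerating system. Samples taken at 0, 3, 6, 9, 15 and 30 min, quenched in methanol. Parent remaining measured by LC-MS/MS; no-cofactor controls included.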

Series [4] is described as follows: Lyophilisation solubility assay (Lysa). Type of series: physicochemical. The conditions noted are these: phosphate buffer, pH 6.5, aqueous buffer, thermodynamic from solid. In outline:
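Duplicate samples from 10 mM DMSO stocks are dried, redissolved in 0.05 M phosphate buffer pH 6.5, stirred 1 h, shaken 2 h and left overnight. Filtrate and its 1/10 dilution are quantified by direct UV or HPLC-UV, giving solubility in μg/mL.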

≈ marks a conversion by molar mass, not a printed value. A value given as a limit tells only on which side of the number the result lay.

Take `CCOC(=O)C1=C(CN2CCOC[C@H]2C(=O)O)NC(c2nccs2)=N[C@H]1c1ccc(F)cc1Cl` [Example 31, (S)-4-[(R)-6-(2-Chloro-4-fluoro-phenyl)-5-ethoxycarbonyl-2-thiazol-2-yl-3,6-dihydro-pyrimidin-4-ylmethyl]-morpholine-3-carboxylic acid]: the EC50 (as a rule, the concentration at which the effect is half-maximal) with HBV [1] is 2 nM. In addition, in the series with HepDE19 cells, the CC50 (in general, the concentration at which the toxic effect on the cells reaches its halfway point) is greater than 100000 nM. In the series with HBV [2], the “Selectivity index (CC50/EC50)” value is listed as greater than 50000. Besides, in series [3], the “Human Hepatic Clearance” value is 4.68 mL/min/kg. Further, in series [4], the thermodynamic solubility (in general, solubility found after equilibrating the solid with the medium) is 630 µg/mL (≈ 1240 µM).

Regarding `CCOC(=O)C1=C(CN2CCOC[C@H]2C(=O)O)NC(c2nccs2)=N[C@H]1c1ccccc1Cl` [Example 82, (S)-4-[(R)-6-(2-Chloro-phenyl)-5-ethoxycarbonyl-2-thiazol-2-yl-3,6-dihydro-pyrimidin-4-ylmethyl]-morpholine-3-carboxylic acid], the EC50 in the series with HBV [1] is 14 nM. This molecule also gave a CC50 in the series with HepDE19 cells greater than 100000 nM. Moreover, in the series with HBV [2], the “Selectivity index (CC50/EC50)” value is given as greater than 7194. Besides, the “Human Hepatic Clearance” value in series [3] is given as 0 mL/min/kg. For the same molecule, the solubility (thermodynamic) in series [4] is greater than 618 µg/mL.

With `CCOC(=O)C1=C(CN2CCOC[C@H]2C(=O)O)NC(c2nccs2)=N[C@H]1c1ccc(F)cc1F` [Example 58, (S)-4-[(R)-6-(2,4-Difluoro-phenyl)-5-ethoxycarbonyl-2-thiazol-2-yl-3,6-dihydro-pyrimidin-4-ylmethyl]-morpholine-3-carboxylic acid], in the series with HBV [1], the EC50 stood at 14 nM. In the series on HepDE19 cells, this molecule displayed a CC50 greater than 100000 nM. The “Selectivity index (CC50/EC50)” value in the series on HBV [2] is recorded as greater than 7353. Moreover, the “Human Hepatic Clearance” value in series [3] is 1.26 mL/min/kg. Moreover, in series [4], the thermodynamic solubility was greater than 638 µg/mL.

Take `CCOC(=O)C1=C(CN2CCOC[C@H]2C(=O)O)NC(c2nccs2)=N[C@H]1c1ccc(F)c(F)c1Br` [Example 128, (3S)-4-[[(4R)-4-(2-Bromo-3,4-difluorophenyl)-5-ethoxycarbonyl-2-(1,3-thiazol-2-yl)-1,4-dihydropyrimidin-6-yl]methyl]morpholine-3-carboxylic acid]: in the series with HBV [1], the EC50 was 0.6 nM. The cytotoxic concentration (CC50) with HepDE19 cells was 51000 nM. The “Selectivity index (CC50/EC50)” value in the series on HBV [2] is recorded as 85000. In addition, the “Human Hepatic Clearance” value in series [3] was 0.26 mL/min/kg. Further, the solubility (thermodynamic) in series [4] is greater than 710 µg/mL.

Regarding `COC(=O)C1=C(CN2CCOC[C@@]2(C)C(=O)O)NC(c2nccs2)=N[C@H]1c1ccc(F)cc1Cl` [Example 121, (S)-4-(((R)-6-(2-Chloro-4-fluorophenyl)-5-(methoxycarbonyl)-2-(thiazol-2-yl)-3,6-dihydropyrimidin-4-yl)methyl)-3-methylmorpholine-3-carboxylic acid], the half-maximal effective concentration (EC50) in the series with HBV [1] was found to be 20 nM. For the same molecule, in the series on HepDE19 cells, the CC50 was greater than 100000 nM. Also, the “Selectivity index (CC50/EC50)” value with HBV [2] was greater than 5000. Further, the “Human Hepatic Clearance” value in series [3] amounted to 1.42 mL/min/kg. In series [4], this molecule gave a solubility (thermodynamic) of 600 µg/mL (≈ 1180 µM).

Regarding `COC(=O)C1=C(CN2CCOC[C@H]2C(=O)O)NC(c2ncoc2C)=N[C@H]1c1ccc(F)cc1Cl` [Example 68, (S)-4-[(R)-6-(2-Chloro-4-fluoro-phenyl)-5-methoxycarbonyl-2-(5-methyl-oxazol-4-yl)-3,6-dihydro-pyrimidin-4-ylmethyl]-morpholine-3-carboxylic acid], the EC50 in the series on HBV [1] amounted to 14 nM. Moreover, the cytotoxic concentration (CC50) with HepDE19 cells is greater than 100000 nM. Further, the “Selectivity index (CC50/EC50)” value in the series with HBV [2] was greater than 7407. Besides, in series [3], the “Human Hepatic Clearance” value was 0.23 mL/min/kg. In series [4], the thermodynamic solubility was greater than 627 µg/mL.

With `COC(=O)C1=C(CN2CCO[C@H](C)[C@H]2C(=O)O)NC(c2nccs2)=N[C@H]1c1ccc(F)cc1Cl` [Example 104, (2R,3S)-4-[(R)-6-(2-Chloro-4-fluoro-phenyl)-5-methoxycarbonyl-2-thiazol-2-yl-3,6-dihydro-pyrimidin-4-ylmethyl]-2-methyl-morpholine-3-carboxylic acid], the concentration for a half-maximal effect (EC50) in the series with HBV [1] amounted to 7 nM. In the series on HepDE19 cells, this molecule came in with a CC50 greater than 100000 nM. For the same molecule, the “Selectivity index (CC50/EC50)” value in the series on HBV [2] is listed as greater than 14286. Further, the “Human Hepatic Clearance” value in series [3] stood at 5.42 mL/min/kg. In addition, in series [4], the solubility (thermodynamic) is greater than 667 µg/mL.

For `O=C(OCC(F)(F)F)C1=C(CN2CCOC[C@H]2C(=O)O)NC(c2nccs2)=N[C@H]1c1ccc(F)cc1Cl` [Example 51, (S)-4-[(R)-6-(2-Chloro-4-fluoro-phenyl)-2-thiazol-2-yl-5-(2,2,2-trifluoro-ethoxycarbonyl)-3,6-dihydro-pyrimidin-4-ylmethyl]-morpholine-3-carboxylic acid], in the series with HBV [1], the concentration giving a half-maximal response (EC50) is 13 nM. In the series with HepDE19 cells, this molecule returned a half-maximal cytotoxic concentration (CC50) of 27000 nM. Moreover, the “Selectivity index (CC50/EC50)” value with HBV [2] turned out to be 2117. Besides, in series [3], the “Human Hepatic Clearance” value is 0 mL/min/kg. Moreover, in series [4], the thermodynamic solubility is greater than 695 µg/mL.

As to `COC(=O)C1=C(CN2CCOC[C@H]2C(=O)O)NC(c2nccs2)=N[C@H]1c1cccc(F)c1Cl` [Example 47, (S)-4-[(R)-6-(2-Chloro-3-fluoro-phenyl)-5-methoxycarbonyl-2-thiazol-2-yl-3,6-dihydro-pyrimidin-4-ylmethyl]-morpholine-3-carboxylic acid], in the series with HBV [1], the EC50 was 4.4 nM. This molecule also registered a CC50 in the series with HepDE19 cells greater than 100000 nM. For the same molecule, the “Selectivity index (CC50/EC50)” value in the series on HBV [2] is listed as greater than 2273. Also, the “Human Hepatic Clearance” value in series [3] was determined as 1.46 mL/min/kg. Besides, the thermodynamic solubility in series [4] was greater than 660 µg/mL.

Take `COC(=O)C1=C(CN2CCOC[C@H]2C(=O)O)NC(c2nc(C(F)(F)F)cs2)=N[C@H]1c1ccc(F)cc1Cl` [Example 95, (S)-4-[(R)-6-(2-Chloro-4-fluoro-phenyl)-5-methoxycarbonyl-2-(4-trifluoromethyl-thiazol-2-yl)-3,6-dihydro-pyrimidin-4-ylmethyl]-morpholine-3-carboxylic acid]: in the series on HBV [1], the EC50 was 2.5 nM. For the same molecule, in the series with HepDE19 cells, the half-maximal cytotoxic concentration (CC50) was greater than 100000 nM. In the series with HBV [2], the “Selectivity index (CC50/EC50)” value is recorded as 40000. For the same molecule, the “Human Hepatic Clearance” value in series [3] was 3.04 mL/min/kg. In series [4], the thermodynamic solubility is greater than 705 µg/mL.

For the molecule `CCOC(=O)C1=C(CN2CCOC[C@H]2C(=O)O)NC(c2nccs2)=N[C@H]1c1cccc(F)c1Cl` [Example 63, (S)-4-[(R)-6-(2-Chloro-3-fluoro-phenyl)-5-ethoxycarbonyl-2-thiazol-2-yl-3,6-dihydro-pyrimidin-4-ylmethyl]-morpholine-3-carboxylic acid], the EC50 with HBV [1] is 0.8 nM. Moreover, the 50% cytotoxic concentration (CC50) with HepDE19 cells is greater than 100000 nM. Moreover, in the series on HBV [2], the “Selectivity index (CC50/EC50)” value is greater than 125000. Besides, the “Human Hepatic Clearance” value in series [3] was 1.71 mL/min/kg. Further, the thermodynamic solubility in series [4] is greater than 679 µg/mL.

Turning to `CCOC(=O)C1=C(CN2CCOC[C@H]2C(=O)O)NC(c2nccs2)=N[C@H]1c1cccc(F)c1Br` [Example 66, (S)-4-[(R)-6-(2-Bromo-3-fluoro-phenyl)-5-ethoxycarbonyl-2-thiazol-2-yl-3,6-dihydro-pyrimidin-4-ylmethyl]-morpholine-3-carboxylic acid], the concentration for a half-maximal effect (EC50) with HBV [1] is 0.7 nM. The molecule also gave a CC50 in the series with HepDE19 cells of 95000 nM. In addition, the “Selectivity index (CC50/EC50)” value with HBV [2] was 135714. In series [3], the “Human Hepatic Clearance” value came to 1.64 mL/min/kg. Further, in series [4], the thermodynamic solubility was greater than 669 µg/mL.

Take `CCOC(=O)C1=C(CN2CCOC[C@H]2C(=O)O)NC(c2nccs2)=N[C@H]1c1ccc(F)cc1` [Example 54, (S)-4-[(S)-5-Ethoxycarbonyl-6-(4-fluoro-phenyl)-2-thiazol-2-yl-3,6-dihydro-pyrimidin-4-ylmethyl]-morpholine-3-carboxylic acid]: in the series on HBV [1], the EC50 worked out at 14 nM. The molecule also showed a half-maximal cytotoxic concentration (CC50) in the series with HepDE19 cells of 62000 nM. Also, in the series on HBV [2], the “Selectivity index (CC50/EC50)” value is on record as 4293. In addition, the “Human Hepatic Clearance” value in series [3] is recorded as 0 mL/min/kg. The molecule further came in with a solubility (thermodynamic) in series [4] greater than 606 µg/mL.

Take `COC(=O)C1=C(CN2CCOC[C@H]2C(=O)O)NC(c2nc(C)cs2)=N[C@H]1c1ccc(F)cc1Cl` [Example 17, (S)-4-[(R)-6-(2-Chloro-4-fluoro-phenyl)-5-methoxycarbonyl-2-(4-methyl-thiazol-2-yl)-3,6-dihydro-pyrimidin-4-ylmethyl]-morpholine-3-carboxylic acid]: in the series with HBV [1], the concentration giving a half-maximal response (EC50) came to 7 nM. In the series on HepDE19 cells, this molecule returned a CC50 greater than 100000 nM. Moreover, in the series on HBV [2], the “Selectivity index (CC50/EC50)” value was greater than 14286. Also, the “Human Hepatic Clearance” value in series [3] turned out to be 0.74 mL/min/kg. Also, the thermodynamic solubility in series [4] was greater than 673 µg/mL.

For `COC(=O)C1=C(CN2CCOC[C@H]2C(=O)O)NC(c2nccs2)=N[C@H]1c1ccc(F)cc1Br` [Example 81, (S)-4-[(R)-6-(2-Bromo-4-fluoro-phenyl)-5-methoxycarbonyl-2-thiazol-2-yl-3,6-dihydro-pyrimidin-4-ylmethyl]-morpholine-3-carboxylic acid], the EC50 with HBV [1] turned out to be 6 nM. In the series with HepDE19 cells, this molecule registered a CC50 greater than 100000 nM. Besides, in the series on HBV [2], the “Selectivity index (CC50/EC50)” value is given as greater than 16667. In addition, the “Human Hepatic Clearance” value in series [3] is recorded as 5.33 mL/min/kg. In series [4], this molecule registered a solubility (thermodynamic) greater than 691 µg/mL.

As to `CC(C)OC(=O)C1=C(CN2CCOC[C@H]2C(=O)O)NC(c2nccs2)=N[C@H]1c1ccc(F)cc1Cl` [Example 98, (S)-4-[(R)-6-(2-Chloro-4-fluoro-phenyl)-5-isopropoxycarbonyl-2-thiazol-2-yl-3,6-dihydro-pyrimidin-4-ylmethyl]-morpholine-3-carboxylic acid], the EC50 in the series with HBV [1] amounted to 17 nM. Also, half-maximal cytotoxicity in the series with HepDE19 cells (CC50) was put at 72000 nM. Moreover, the “Selectivity index (CC50/EC50)” value in the series on HBV [2] came to 4224. Besides, the “Human Hepatic Clearance” value in series [3] is 0 mL/min/kg. Further, the solubility (thermodynamic) in series [4] was greater than 650 µg/mL.
